Measured values from US9624242B2, “11-2(2-pyrrolidin-1-yl-ethoxy)-14,19-dioxa-5,7,26-triaza-tetracyclo[19.3.1.1(2,6).1(8,12)]heptacosa-1(25),2(26),3,5,8,10,12(27),16,21,23-decaene citrate salt” (CTI BIOPHARMA CORP., priority 2008, dated 2017).
Where a name gives a salt, the structure may show the parent alone. Read-outs that look alike come from different tables or passages of the source. Each block holds one compound with its values, some of them ahead of it.

Legend:
Format in all cases: physicochemical
[1] = Maturation of citrate salt in 27 solvents, solids analysed by XRPD
Description: In order to determine the propensity of polymorphism for the citrate salt the group A material was maturated in 27 different solvents. A small amount of solid was slurried with the corresponding solvent (see Table 4 below) and stored in the incubator and subjected to 4 h-heat/cool cycles at 50° C./r.t. for 24 h. The solvents were then removed under vacuum, and the remaining solids analysed by XRPD.

[2] = Stress tests at elevated temperature and humidity, analysed by XRPD
Description: The group three material was stressed under conditions which might cause it is to convert to group one material or, indeed, another hydrated or polymorphic form. Thus samples were stored at 40° C./75% RH and also at 60° C./96% RH and analysed at regular intervals by XRPD.
The stability of the citrate salt group A material was tested in harsher conditions, when the samples were kept for a week in a humidity chamber at 60° C. and 96% RH.

[3] = Solid form analysis of salt batches (XRPD, DSC, TGA, GVS)
Excerpt: Initial studies into compound I involved analysis of the hydrochloride salt. It was found as summarised in Table 1 below, that the initially prepared hydrochloride salt produces an inconsistent solid form with significant variability in the DSC, TGA, GVS and XRPD pattern (see FIGS. 1 to 16).
The samples of both hydrochloride (comparative) and citrate salts were subjected to X-ray diffraction to determine the characteristic X-ray diffraction pattern. The conditions used were as follows: X-Ray Powder Diffraction patterns were collected on a Siemens D5000 diffractometer using Cu Kα radiation (40 kV, 40 mA), θ-θ goniometer, divergence of V20 and receiving slits, a graphite secondary monochromator and a scintillation counter. The instrument is performance checked using a certified Corundum standard (NIST 1976).
Samples run under ambient conditions were prepared as flat plate specimens using powder as received. Approximately 35 mg of the sample was gently packed into a cavity cut into polished, zero-background (510) silicon wafer. The sample was rotated in its own plane during analysis. The details of the data collection are: • Angular range: 2 to 42°2θ • Step size: 0.05°2θ • Collection time: 4 s·step^1.
Alternatively, X-Ray Powder Diffraction patterns were collected on a Bruker AXS C2 GADDS diffractometer using Cu Kα radiation (40 kV, 40 mA), automated XYZ stage, laser video microscope for auto-sample positioning and a HiStar 2-dimensional area detector. X-ray optics consists of a single Gabel multilayer mirror coupled with a pinhole collimator of 0.3 mm. The beam divergence, i.e. the effective size of the X-ray beam on the sample, was approximately 4 mm. A θ-θ continuous scan mode was employed with a sample-detector distance of 20 cm which gives an effective 2θ range of 3.2°-29.7°. Typically the sample would be exposed to the X-ray beam for 120 seconds.
Samples run under ambient conditions were prepared as flat plate specimens using powder as received without grinding. Approximately 1-2 mg of the sample was lightly pressed on a glass slide to obtain a flat surface.

[4] = Gravimetric Vapour Sorption (GVS) with post-GVS XRPD; settings: for solid form / XRPD pattern post GVS compared with before: XRPD after GVS experiment; for GVS mass gain: from 40% RH to 90% RH; for GVS mass lost on going to dryness: from 90% RH to dryness
[5] = Variable temperature X-ray diffraction
Description: Samples run under non-ambient conditions were mounted on a silicon wafer with heat-conducting compound. The sample was then heated to the appropriate temperature at ca. 10° C.·min^−1 and subsequently held isothermally for ca 2 minutes before data collection was initiated.
In order to probe the stability of the samples of the citrate salts variable temperature X-ray diffraction was carried out. Thus, the salts were scanned under X-ray diffraction conditions at a series of temperatures and the characteristic peaks determined.

[6] = Thermal gravimetric analysis (TGA); settings: for TGA weight loss before degradation / melt with decomposition: result in words
Description: The samples of both hydrochloride (comparative) and citrate salts were subjected to thermal gravimetric analysis and differential scanning calorimetry under the following conditions. DSC data were collected on a TA Instruments Q2000 equipped with a 50 position auto-sampler. The instrument was calibrated for energy and temperature calibration using certified indium. Typically 0.5-3 mg of each sample, in a pin-holed aluminium pan, was heated at 10° C.·min^−1 from 25° C. to 270° C.
TGA data were collected on a TA Instruments Q500 TGA, equipped with a 16 position auto-sampler. The instrument was temperature calibrated using certified Alumel. Typically 5-30 mg of each sample was loaded onto a pre-tared platinum crucible and aluminium DSC pan, and was heated at 10° C.·min^−1 from ambient temperature to 300° C. A nitrogen purge at 60 ml·min^−1 was maintained over the sample. The instrument control software was Thermal Advantage v4.6.6 and the data were analysed using Universal Analysis v4.3A. Alternatively, TGA data were collected on a Mettler TGA/SDTA 851e equipped with a 34 position auto-sampler. The instrument was temperature calibrated using certified indium. Typically 5-30 mg to of each sample was loaded onto a pre-weighed aluminium crucible and was heated at 10° C.·min^−1 from ambient temperature to 300° C. A nitrogen purge at 50 ml·min^−1 was maintained over the sample. The instrument control and data analysis software was STARe v9.01.

[7] = Karl-Fischer analysis
[8] = hydrochloride salt batches, hydrochloride

- Solid Form after maturation ([1]; 1,4-dioxane): Form A
- Solid Form after maturation ([1]; 1-butanol): Form A
- Solid Form after maturation ([1]; 1-pentanol): Form A
- Solid Form after maturation ([1]; 1-propanol): Form A
- Solid Form after maturation ([1]; 2-butanol): Form A
- Solid Form after maturation ([1]; 2-methoxy ethanol): Form A
- Solid Form after maturation ([1]; 3-methyl-1-butanol): Form A
- solid forms identified after maturation ([1]; 27 different solvents, 4 h heat/cool cycles 50° C./r.t. for 24 h): only one solid form
- Solid Form after maturation ([1]; Acetonitrile): Form A
- Solid Form after maturation ([1]; Cyclohexane): Form A
- Solid Form after maturation ([1]; DMSO): Form A
- Solid Form after maturation ([1]; Dicloro-methane): Form A
- Solid Form after maturation ([1]; Ethanol): Form A
- Solid Form after maturation ([1]; Ethyl acetate): Form A
- Solid Form after maturation ([1]; Heptane): Form A
- Solid Form after maturation ([1]; IPA): Form A
- Solid Form after maturation ([1]; Isobutyl acetate): Form A
- Solid Form after maturation ([1]; Isopropyl acetate): Form A
- Solid Form after maturation ([1]; Methyl isobutyl ketone): Form A
- Solid Form after maturation ([1]; Methylethyl ketone): Form A
- Solid Form after maturation ([1]; Nitromethane): Form A
- Solid Form after maturation ([1]; Propyl acetate): Form A
- Solid Form after maturation ([1]; TBME): Form A
- Solid Form after maturation ([1]; Tetrahydro furan): Form A
- Solid Form after maturation ([1]; Toluene): Form A
- Solid Form after maturation ([1]; Water): Form A
- Solid Form after maturation ([1]; acetone): Form A
- Solid Form after maturation ([1]; methanol): Form A
- change of crystalline pattern (XRPD) after stress ([2]; one week in humidity chamber at 60° C. and 96% RH): no changes are observed
Structure (SMILES): C1=C/COCc2cc(ccc2OCCN2CCCC2)Nc2nccc(n2)-c2cccc(c2)COC/1 [citrate salt group A material, 11-(2-pyrrolidin-1-yl-ethoxy)-14,19-dioxa-5,7,26-triaza-tetracyclo[19.3.1.1(2,6).1(8,12)]heptacosa-1(25),2(26),3,5,8,10,12(27),16,21,23-decaene]

- Solid Form Comment ([3]; citrate salt batches): Group A
- solid form / XRPD pattern post GVS compared with before [4]: no change
- GVS water taken up ([4]; between 0 and 90% RH): less than 0.8%
- hygroscopicity ([4]; result in words): low hygroscopicity
- decomposition / degradation temperature in TGA [6]: 180 °C
- TGA weight loss before degradation / melt with decomposition [6]: no weight loss
Structure (SMILES): C1=C/COCc2cc(ccc2OCCN2CCCC2)Nc2nccc(n2)-c2cccc(c2)COC/1 [Batch Citrate 1, 11-(2-pyrrolidin-1-yl-ethoxy)-14,19-dioxa-5,7,26-triaza-tetracyclo[19.3.1.1(2,6).1(8,12)]heptacosa-1(25),2(26),3,5,8,10,12(27),16,21,23-decaene]
- change of X-ray diffraction pattern with temperature [5]: no change irrespective of the temperature

Structure (SMILES): C1=CCOCc2cc(ccc2OCCN2CCCC2)Nc2nccc(n2)-c2cccc(c2)COC1.Cl [Batch HCl 5, 11-(2-pyrrolidin-1-yl-ethoxy)-14,19-dioxa-5,7,26-triaza-tetracyclo[19.3.1.1(2,6).1(8,12)]heptacosa-1(25),2(26),3,5,8,10,12(27),16,21,23-decaene hydrochloride]
- Solid Form Comment [3, 8]: Group 2

Structure (SMILES): C1=CCOCc2cc(ccc2OCCN2CCCC2)Nc2nccc(n2)-c2cccc(c2)COC1.Cl [Batch HCl 6, 11-(2-pyrrolidin-1-yl-ethoxy)-14,19-dioxa-5,7,26-triaza-tetracyclo[19.3.1.1(2,6).1(8,12)]heptacosa-1(25),2(26),3,5,8,10,12(27),16,21,23-decaene hydrochloride]
- Solid Form Comment [3, 8]: Group 3
- solid form / XRPD pattern post GVS compared with before ([4]; hydrochloride): unchanged
- GVS mass gain [4]: 1.6%
- GVS mass lost on going to dryness ([4]; hydrochloride): 2.4%
- decomposition / degradation temperature in TGA ([6]; hydrochloride): around 240 °C
- TGA weight loss before degradation / melt with decomposition [6]: very little weight loss

Structure (SMILES): C1=CCOCc2cc(ccc2OCCN2CCCC2)Nc2nccc(n2)-c2cccc(c2)COC1.Cl [Batch HCl 1, 11-(2-pyrrolidin-1-yl-ethoxy)-14,19-dioxa-5,7,26-triaza-tetracyclo[19.3.1.1(2,6).1(8,12)]heptacosa-1(25),2(26),3,5,8,10,12(27),16,21,23-decaene hydrochloride]
- Solid Form Comment [3, 8]: Group 1 + 3 + amorphous
- GVS adsorption of water in the initial adsorption cycle ([4]; at 90% RH): 5.5%
- GVS mass lost on going to dryness ([4]; hydrochloride): 5%
- GVS mass regained ([4]; from dryness to 40% RH): 2%
- GVS total gain ([4]; whole GVS cycle): 2%
- equivalents of water corresponding to TGA weight loss ([6]; hydrochloride): 1.4 equivalents of water
- TGA two stage weight loss, total ([6]; up to 100° C.): 4.5%

Structure (SMILES): C1=CCOCc2cc(ccc2OCCN2CCCC2)Nc2nccc(n2)-c2cccc(c2)COC1.Cl [Batch HCl 2, 11-(2-pyrrolidin-1-yl-ethoxy)-14,19-dioxa-5,7,26-triaza-tetracyclo[19.3.1.1(2,6).1(8,12)]heptacosa-1(25),2(26),3,5,8,10,12(27),16,21,23-decaene hydrochloride]
- Solid Form Comment [3, 8]: Predominately Group 1
- decomposition / degradation temperature in TGA [6]: 260 °C
- water lost in the first phase of the TGA ([6]; hydrochloride): 5.6%
- equivalents of water corresponding to TGA weight loss ([6]; hydrochloride): 1.67 equivalents of water

Structure (SMILES): C1=CCOCc2cc(ccc2OCCN2CCCC2)Nc2nccc(n2)-c2cccc(c2)COC1.Cl [Batch HCl 4, 11-(2-pyrrolidin-1-yl-ethoxy)-14,19-dioxa-5,7,26-triaza-tetracyclo[19.3.1.1(2,6).1(8,12)]heptacosa-1(25),2(26),3,5,8,10,12(27),16,21,23-decaene hydrochloride]
- Solid Form Comment [3, 8]: Group 1
- solid form / XRPD pattern post GVS compared with before ([4]; hydrochloride): unchanged
- GVS mass gain [4]: 1.6%
- GVS mass lost on going to dryness ([4]; hydrochloride): 2.8%
- TGA mass loss ([6]; between ambient and 108° C.): 6.5%

Structure (SMILES): C1=CCOCc2cc(ccc2OCCN2CCCC2)Nc2nccc(n2)-c2cccc(c2)COC1.Cl [Batch HCl 3, 11-(2-pyrrolidin-1-yl-ethoxy)-14,19-dioxa-5,7,26-triaza-tetracyclo[19.3.1.1(2,6).1(8,12)]heptacosa-1(25),2(26),3,5,8,10,12(27),16,21,23-decaene hydrochloride]
- Solid Form Comment [3, 8]: Group 1 + 3 + little amorphous
- equivalents of water by Karl-Fischer analysis [7]: 1.1 equivalents
- water content by Karl-Fischer analysis [7]: 3.79%
- decomposition / degradation temperature in TGA [6]: 260 °C
- total weight lost in the TGA [6]: 3.4%
- another loss in TGA ([6]; at 165° C.): 1.97%
- water lost in the first phase of the TGA ([6]; hydrochloride): 1.5%
- equivalents of water corresponding to TGA weight loss ([6]; hydrochloride): 0.5 equivalents of water

Structure (SMILES): C1=CCOCc2cc(ccc2OCCN2CCCC2)Nc2nccc(n2)-c2cccc(c2)COC1.Cl [group 3 hydrochloride, 11-(2-pyrrolidin-1-yl-ethoxy)-14,19-dioxa-5,7,26-triaza-tetracyclo[19.3.1.1(2,6).1(8,12)]heptacosa-1(25),2(26),3,5,8,10,12(27),16,21,23-decaene hydrochloride]
- solid form by XRPD after stress (Comment) ([2]; 40° C./75% RH, 0 hrs): Group three
- solid form by XRPD after stress (Comment) ([2]; 40° C./75% RH, 24 hrs): Group three
- solid form by XRPD after stress (Comment) ([2]; 40° C./75% RH, 48 hrs): Group three
- solid form by XRPD after stress (Comment) ([2]; 40° C./75% RH, 72 hrs): Group one
- solid form by XRPD after stress (Comment) ([2]; 60° C./96% RH, 0 hrs): Group three
- solid form by XRPD after stress (Comment) ([2]; 60° C./96% RH, 24 hrs): Group one
